Data reported in patent publication US5677305A, “Oxopyridinylquinoxaline derivative” (Shionogi & Co., Ltd., priority 1994, dated 1997).

Assays:
[1] = test system: glycine binding site of the NMDA receptors; conditions: in words; cited from earlier work
AMPA receptors = test: competitive binding to AMPA receptors ([3H]AMPA); parameters: species or system Slc-Wistar rat; conditions: [3H]AMPA 30 nM, rat cerebral cortex membrane, 100 mM KSCN, 0° C., 30 minutes
Description: The binding ability of the compounds of the present invention with respect to the AMPA receptors can be measured, for example, by the following competitive assay.
(§1) A rat cerebral cortex is homogenized with a buffer solution, and repeatedly centrifuged and resuspended in a buffer to prepare a membrane sample. The membrane sample is mixed with a solution containing [^3 H] AMPA and a compound of interest and incubated for a predetermined period of time. Then, the reaction of the mixture is terminated by dilution and filtration using filter paper. Radioactivity on the filter paper is measured by a liquid scintillation counter. Non-specific binding is measured with 1 mM of non-radioactive glutamate to work out IC50.
Assay for competitive binding of 6-nitro-7-(4-oxo-4H-pyridin-1-yl)-1,4-dihydroquinoxaline-2,3-dione (Ia) to AMPA receptors.
First, the cerebral cortex of an Slc-Wistar rat (250 to 300 g in weight) was homogenized in 30 mM Tris acetic acid buffer in 10-fold volume (containing 2.5 mM CaCl2, pH 7.1). […] Each of the mixtures was diluted and filtered using Whatman GF/C filter paper so as to terminate the reaction, and radioactivity of ^3 H remaining on the filter paper was measured by a scintillation counter for liquid. […] IC50 value of Compound Ia was determined using YM900 as a control in the same way as described above.

[2] = target: T1, glycine binding site of NMDA receptors (Rattus norvegicus, UniProt P35439); test: competitive binding to a glycine binding site of NMDA receptors ([3H]glycine); parameters: species or system Slc-Wistar rat; conditions: for IC50: [3H]glycine 100 nM, rat cerebral cortex membrane, 0° C., 10 minutes
T1 construct: the cerebral cortex of an Slc-Wistar rat (250 to 300 g in weight) was homogenized; from tissue; host or cells: cerebral cortex of Slc-Wistar rat, washed and Triton X-100 treated membranes
Description: The ability of the compounds of the present invention to bind to a glycine binding site of the NMDA receptors can be measured, for example, using competitive assay in vitro as described below.
as §1, with “glycine” for “AMPA”, “glycine” for “glutamate”
Assay for competitive binding of 6-nitro-7-(4-oxo-4H-pyridin-1-yl)-1,4-dihydroquinoxaline-2,3-dione (Ia) to a glycine binding site of NMDA receptors.
First, the cerebral cortex of an Slc-Wistar rat (250 to 300 g in weight) was homogenized in 5 mM Tris acetic acid buffer in 20-fold volume (containing 1 mM EGTA, 0.1 mM PMSF, and 0.01% Bacitracin, pH 7.4). The cerebral cortex was centrifuged at 50,000×g for 30 minutes and resuspended in a buffer. This process was repeated four times. The final suspension was stored at -80° C. The frozen suspension was thawed at room temperature and incubated with 0.08% Triton X-100 solution at […] for 10 minutes. The resultant suspension was then washed twice and suspended in 50 mM Tris-acetate buffer (pH 7.4) to give a membrane sample. The membrane sample was mixed with 100 nM [^3 H]glycine and solutions in a series of concentrations of Compound Ia obtained in Example 1. The mixtures were incubated at 0° C. for 10 minutes. Each of the mixtures was diluted and filtered using Whatman GF/C filter paper so as to terminate the reaction, and radioactivity of ^3 H remaining on the filter paper was measured by a scintillation counter for liquid. […] IC50 value of Compound Ia was determined using YM900 (a compound of Example 15 described in WO92/07847) as a control in the same way as described above.

N#Cc1cc2[nH]c(=O)c(=O)[nH]c2cc1[N+](=O)[O-] [CNQX, 6-cyano-7-nitroquinoxaline-2,3-dione]
antagonistic effects on the glycine binding site of the NMDA receptors [1]: exhibit antagonistic effects on the glycine binding site of the NMDA receptors

O=c1[nH]c2cc([N+](=O)[O-])c([N+](=O)[O-])cc2[nH]c1=O [DNQX, 6,7-dinitroquinoxaline-2,3-dione]
antagonistic effects on the glycine binding site of the NMDA receptors [1]: exhibit antagonistic effects on the glycine binding site of the NMDA receptors

O=c1ccn(-c2cc3[nH]c(=O)c(=O)[nH]c3cc2[N+](=O)[O-])cc1 [Ia, 6-nitro-7-(4-oxo-4H-pyridin-1-yl)-1,4-dihydroquinoxaline-2,3-dione]
IC50 (AMPA receptors): 0.1 µM | antagonistic effects as strong as that of YM900 (times) ([2]; Ia vs YM900, from Table 2): approximately ten | IC50 [2]: 6.6 µM

O=c1[nH]c2cc(-n3ccnc3)c([N+](=O)[O-])cc2[nH]c1=O [YM900, 6-imidazolyl-7-nitroquinoxaline-2,3-(1H, 4H)-dione]
IC50 (AMPA receptors): 0.28 µM | IC50 [2]: 67 µM
